From PubChem BioAssay AID330 (DTP/NCI, 2004)
Values joined by “and” are separate entries in the source; they are usually repeats but may differ in a detail not shown here. Equal values may be shown once. Inconclusive results and toxic doses are left out.

Test system: P388 leukemia ip, CD2F1 mice, survival T/C
Assay: NCI In Vivo Anticancer Drug Screen. Data for tumor model P388 Leukemia (intraperitoneal) in CD2F1 (CDF1) mice
Settings: endpoint: median survival time, higher = longer survival
How it was run: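 Mice carrying the transplanted tumor received test compound or vehicle. Survival was recorded in each group, and the value is the treated-group measurement divided by that of the vehicle-treated control group.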

[1] = dose: 50.0 mg/kg/injection, schedule: Q01DX005 (ip), vehicle: saline with Tween-80
[2] = dose: 12.5 mg/kg/injection, schedule: Q01DX009 (ip), vehicle: saline with Tween-80
[3] = dose: 25.0 mg/kg/injection, schedule: Q01DX009 (ip), vehicle: saline with Tween-80
[4] = dose: 50.0 mg/kg/injection, schedule: Q01DX009 (ip), vehicle: saline with Tween-80
[5] = dose: 100.0 mg/kg/injection, schedule: Q01DX009 (ip), vehicle: saline with Tween-80
[6] = dose: 60.0 mg/kg/injection, schedule: Q01DX005 (ip), vehicle: Klucel (hydroxypropylcellulose) (HPC)
[7] = dose: 120.0 mg/kg/injection, schedule: Q01DX005 (ip), vehicle: Klucel (hydroxypropylcellulose) (HPC)
[8] = dose: 50.0 mg/kg/injection, schedule: Q01DX005 (ip), vehicle: saline
[9] = dose: 100.0 mg/kg/injection, schedule: Q01DX005 (ip), vehicle: saline
[10] = dose: 200.0 mg/kg/injection, schedule: Q01DX005 (ip), vehicle: saline
[11] = dose: 100.0 mg/kg/injection, schedule: Q04DX002 (ip), vehicle: Klucel (hydroxypropylcellulose) (HPC)
[12] = dose: 200.0 mg/kg/injection, schedule: Q04DX002 (ip), vehicle: Klucel (hydroxypropylcellulose) (HPC)
[13] = dose: 400.0 mg/kg/injection, schedule: Q04DX002 (ip), vehicle: Klucel (hydroxypropylcellulose) (HPC)
[14] = dose: 100.0 mg/kg/injection, schedule: Q01DX009 (ip), vehicle: saline
[15] = dose: 200.0 mg/kg/injection, schedule: Q01DX009 (ip), vehicle: saline
[16] = dose: 120.0 mg/kg/injection, schedule: Q01DX005 (ip), vehicle: saline with Tween-80
[17] = dose: 12.5 mg/kg/injection, schedule: Q01DX005 (ip), vehicle: saline with Tween-80
[18] = dose: 25.0 mg/kg/injection, schedule: Q01DX005 (ip), vehicle: saline with Tween-80
[19] = dose: 60.0 mg/kg/injection, schedule: Q01DX005 (ip), vehicle: saline with Tween-80
[20] = dose: 240.0 mg/kg/injection, schedule: Q01DX005 (ip), vehicle: saline with Tween-80

Structure (SMILES): C[N+](C)(C)CCC(=O)c1ccc(Cl)cc1
- T/C (dose: 3.13 mg/kg/injection, schedule: Q01DX009 (ip), vehicle: saline): 109 % of control
- T/C (dose: 6.25 mg/kg/injection, schedule: Q01DX009 (ip), vehicle: saline): 96 % of control
- T/C (dose: 12.5 mg/kg/injection, schedule: Q01DX009 (ip), vehicle: saline): 103 % of control

Structure (SMILES): NC(=O)N/N=C1/C=CC2(CC=CCC2)CC1 (centres undefined)
- T/C (dose: 100.0 mg/kg/injection, schedule: Q01DX001 (ip), vehicle: Klucel (hydroxypropylcellulose) (HPC)): 90 % of control
- T/C (dose: 200.0 mg/kg/injection, schedule: Q01DX001 (ip), vehicle: Klucel (hydroxypropylcellulose) (HPC)): 104 % of control
- T/C (dose: 400.0 mg/kg/injection, schedule: Q01DX001 (ip), vehicle: Klucel (hydroxypropylcellulose) (HPC)): 90 % of control

Structure (SMILES): CC(=O)/C=C/c1ccc(OC(=O)/C=C/c2ccccc2)cc1
- T/C [1]: 101 % of control
- T/C (dose: 100.0 mg/kg/injection, schedule: Q01DX005 (ip), vehicle: saline with Tween-80): 100 % of control
- T/C (dose: 200.0 mg/kg/injection, schedule: Q01DX005 (ip), vehicle: saline with Tween-80): 98 % of control

Structure (SMILES): O=C1NC(=O)C2CCCCC12 (centres undefined)
- T/C [2]: 109 % of control
- T/C [3]: 102 % of control
- T/C [4]: 100 % of control
- T/C [5]: 100 % of control

Structure (SMILES): COc1ccc(C(c2cc3c(cc2O)OCO3)N2CCN(C(c3cc4c(cc3O)OCO4)c3ccc(OC)cc3OC)CC2)c(OC)c1 (centres undefined)
- T/C [6]: 88 % of control
- T/C [7]: 86 % of control

Structure (SMILES): Oc1ccccc1
- T/C (dose: 0.12 % in 0.5 ml injection vol, schedule: Q01DX009 (ip), vehicle: water): 103 % of control
- T/C (dose: 0.25 % in 0.5 ml injection vol, schedule: Q01DX009 (ip), vehicle: water): 103 % of control
- T/C (dose: 0.5 % in 0.5 ml injection vol, schedule: Q01DX009 (ip), vehicle: water): 111 % of control
- T/C (dose: 1.0 % in 0.5 ml injection vol, schedule: Q01DX009 (ip), vehicle: water): 118 % of control

Structure (SMILES): CCN=C1SCCCS1
- T/C [2]: 103 % of control
- T/C [3]: 118 % of control
- T/C [4]: 113 % of control and 119 % of control
- T/C [5]: 117 % of control

Structure (SMILES): CCN(CCC(=O)OC)Cc1ccnc2ccccc12
- T/C [8]: 103 % of control
- T/C [9]: 113 % of control
- T/C [10]: 106 % of control

Structure (SMILES): CNC(=O)OCCC(OC(=O)NC)C1CCC2C3CCC4CCCCC4(C)C3CCC12C (centres undefined)
- T/C [11]: 113 % of control
- T/C [12]: 103 % of control
- T/C [13]: 110 % of control

Structure (SMILES): COc1ccc(-n2cc[n+](C)c2/C=N\O)cc1
- T/C [4]: 97 % of control
- T/C [5]: 98 % of control

Structure (SMILES): CN(C)CCCNc1c2ccccc2nc2cccc([N+](=O)[O-])c12
- T/C (dose: 0.03 mg/kg/injection, schedule: Q01DX009 (ip), vehicle: water): 102 % of control and 108 % of control
- T/C (dose: 0.06 mg/kg/injection, schedule: Q01DX009 (ip), vehicle: water): 107 % of control and 115 % of control (2×)
- T/C (dose: 0.13 mg/kg/injection, schedule: Q01DX009 (ip), vehicle: water): 115 % of control and 120 % of control and 123 % of control
- T/C (dose: 0.25 mg/kg/injection, schedule: Q01DX009 (ip), vehicle: water): 107 % of control and 96 % of control
- T/C (dose: 8.0 micrograms/kg/injection, schedule: Q01DX009 (ip), vehicle: saline): 100 % of control
- T/C (dose: 16.0 micrograms/kg/injection, schedule: Q01DX009 (ip), vehicle: saline): 119 % of control
- T/C (dose: 32.0 micrograms/kg/injection, schedule: Q01DX009 (ip), vehicle: saline): 100 % of control
- T/C (dose: 63.0 micrograms/kg/injection, schedule: Q01DX009 (ip), vehicle: saline): 123 % of control
- T/C (dose: 125.0 micrograms/kg/injection, schedule: Q01DX009 (ip), vehicle: saline): 117 % of control
- T/C (dose: 250.0 micrograms/kg/injection, schedule: Q01DX009 (ip), vehicle: saline): 116 % of control

Structure (SMILES): CC(=O)C(N=Nc1cc([N+](=O)[O-])cc(S(=O)(=O)O)c1O)C(=O)Nc1ccccc1.[Cr] (centres undefined)
- T/C (dose: 50.0 mg/kg/injection, schedule: Q01DX009 (ip), vehicle: saline): 107 % of control
- T/C [14]: 99 % of control
- T/C [15]: 97 % of control

Structure (SMILES): CC(C)(Oc1ccc(Cl)cc1)C(=O)NC(CS(C)(=O)=O)C(=O)O (centres undefined)
- T/C [8]: 99 % of control
- T/C [9]: 99 % of control
- T/C [10]: 100 % of control

Structure (SMILES): CCCCCCNCC(=O)OCC
- T/C [8]: 101 % of control
- T/C [9]: 106 % of control
- T/C [10]: 110 % of control

Structure (SMILES): CC1OS(=O)(=O)C=C1Br (centres undefined)
- T/C (dose: 100.0 mg/kg/injection, schedule: Q04DX003 (ip), vehicle: saline with Tween-80): 108 % of control
- T/C (dose: 200.0 mg/kg/injection, schedule: Q04DX003 (ip), vehicle: saline with Tween-80): 97 % of control
- T/C (dose: 400.0 mg/kg/injection, schedule: Q04DX003 (ip), vehicle: saline with Tween-80): 89 % of control

Structure (SMILES): N=C(N)N=Nc1ccc(O)cc1
- T/C [16]: 119 % of control

Structure (SMILES): CCC[As](C)SC1OC(COC(C)=O)C(OC(C)=O)C(OC(C)=O)C1OC(C)=O (centres undefined)
- T/C [4]: 110 % of control
- T/C [5]: 110 % of control
- T/C (dose: 200.0 mg/kg/injection, schedule: Q01DX009 (ip), vehicle: saline with Tween-80): 110 % of control

Structure (SMILES): O=C(CNC(=O)c1ccc(Cl)cc1)c1ccc(Br)cc1
- T/C [17]: 94 % of control
- T/C [18]: 92 % of control
- T/C [1]: 92 % of control

Structure (SMILES): N#Cc1ccc(NC(=O)Nc2nccs2)cc1
- T/C (dose: 12.5 mg/kg/injection, schedule: Q01DX009 (ip), vehicle: distilled water + Tween-80): 108 % of control
- T/C (dose: 25.0 mg/kg/injection, schedule: Q01DX009 (ip), vehicle: distilled water + Tween-80): 117 % of control

Structure (SMILES): O=C1C=C(c2ccccc2)CC1
- T/C [3]: 88 % of control
- T/C [4]: 100 % of control
- T/C [5]: 111 % of control

Structure (SMILES): CCOC(=O)Cc1csc(/C=C/c2ccc(OC)c(OC)c2)n1
- T/C [19]: 96 % of control
- T/C [16]: 96 % of control
- T/C [20]: 90 % of control

Structure (SMILES): O=C1c2ccccc2C(=O)N1Cc1ccc(CCl)s1
- T/C (dose: 15.0 mg/kg/injection, schedule: Q01DX005 (ip), vehicle: saline with Tween-80): 101 % of control
- T/C (dose: 30.0 mg/kg/injection, schedule: Q01DX005 (ip), vehicle: saline with Tween-80): 102 % of control
- T/C [19]: 100 % of control and 105 % of control
- T/C [16]: 119 % of control
- T/C [20]: 112 % of control

Structure (SMILES): O=C(O)COc1ccc(F)c(F)c1
- T/C [6]: 101 % of control and 104 % of control
- T/C [7]: 106 % of control and 94 % of control
- T/C (dose: 240.0 mg/kg/injection, schedule: Q01DX005 (ip), vehicle: Klucel (hydroxypropylcellulose) (HPC)): 100 % of control and 86 % of control

Structure (SMILES): Nc1ccn([C@@H](C=O)C[C@@H](C=O)CO)c(=O)n1
- T/C (dose: 25.0 mg/kg/injection, schedule: Q01DX005 (ip), vehicle: saline): 112 % of control
- T/C [10]: 150 % of control
- T/C (dose: 400.0 mg/kg/injection, schedule: Q01DX005 (ip), vehicle: saline): 166 % of control

Structure (SMILES): Fc1ccc2cc3cccc[n+]3cc2c1
- T/C (dose: 6.25 mg/kg/injection, schedule: Q01DX005 (ip), vehicle: saline with Tween-80): 100 % of control
- T/C [17]: 99 % of control
- T/C [18]: 99 % of control

Structure (SMILES): OC(CCCN1CCN2CCc3[nH]c4ccccc4c3C2C1)c1ccc(F)cc1 (centres undefined)
- T/C [11]: 100 % of control
- T/C [12]: 95 % of control
- T/C [13]: 100 % of control

Structure (SMILES): Nc1nc(C2CCCCC2)c(I)c(=O)[nH]1
- T/C (dose: 50.0 mg/kg/injection, schedule: Q01DX005 (ip), vehicle: Klucel (hydroxypropylcellulose) (HPC)): 101 % of control
- T/C (dose: 100.0 mg/kg/injection, schedule: Q01DX005 (ip), vehicle: Klucel (hydroxypropylcellulose) (HPC)): 103 % of control
- T/C (dose: 200.0 mg/kg/injection, schedule: Q01DX005 (ip), vehicle: Klucel (hydroxypropylcellulose) (HPC)): 97 % of control

Structure (SMILES): Nc1c[nH]ccc1=O
- T/C [14]: 102 % of control
- T/C [15]: 100 % of control
- T/C (dose: 400.0 mg/kg/injection, schedule: Q01DX009 (ip), vehicle: saline): 99 % of control

Structure (SMILES): CSN(C)C(=O)Nc1cc(Cl)ccc1Cl
- T/C (dose: 100.0 mg/kg/injection, schedule: Q04DX003 (ip), vehicle: saline): 107 % of control
- T/C (dose: 200.0 mg/kg/injection, schedule: Q04DX003 (ip), vehicle: saline): 92 % of control
- T/C (dose: 400.0 mg/kg/injection, schedule: Q04DX003 (ip), vehicle: saline): 92 % of control
